ChEMBL document CHEMBL4680169, “Synthesis and bioevaluation of new vascular-targeting and anti-angiogenic thieno[2,3-d]pyrimidin-4(3H)-ones” (Eur J Med Chem, 2020)
Calls of active or inactive are those of the source. The calls are words filed in the database; no cut-off is given here.

How the values were obtained:
EA.hy 926 [1] = experiment: cells; type: functional, cell-based; conditions: Homo sapiens, EA.hy 926, 72 h
Description: Cytotoxicity against human EA.hy 926 cells assessed as inhibition of cell growth after 72 hrs by MTT assay

HCT-116 [2] = experiment: cells; type: functional, cell-based; conditions: Homo sapiens, HCT-116, 72 h
Description: Cytotoxicity against human HCT-116 p53 mutant cells assessed as inhibition of cell growth after 72 hrs by MTT assay

KB-V1 = experiment: cells; type: functional, cell-based; conditions: Homo sapiens, KB-V1, 72 h
Description: Cytotoxicity against multidrug resistant human KB-V1 cells assessed as inhibition of cell growth after 72 hrs by MTT assay

HCT-116 [3] = experiment: cells; type: functional, cell-based; conditions: Homo sapiens, HCT-116, 72 h; remark: listed apart in the source
Description: Cytotoxicity against wild type human HCT-116 cells assessed as inhibition of cell growth after 72 hrs by MTT assay

518A2 = experiment: cells; type: functional, cell-based; conditions: Homo sapiens, 518A2, 72 h
Description: Cytotoxicity against human 518A2 cells assessed as inhibition of cell growth after 72 hrs by MTT assay

Sus scrofa = organism: Sus scrofa; experiment: Inhibition of porcine brain tubulin polymerization at 10 uM measured at 20 sec interval for 2 hrs by turbidometric method
Chorioallantoic membrane [4] = experiment: Antiangiogenic activity in chicken fertilized egg chorioallantoic membrane assessed as reduction in tube formation at 5 nmol incubated for 6 to 24 hrs by CAM assay; type: functional, tissue-based; conditions: Gallus gallus, time 6-24 hrs
EA.hy 926 [5] = experiment: Vascular disruptive effect in human EA.hy926 cells at 250 nM incubated for 12 hrs by matrigel-based MTT assay; type: functional, cell-based
Chorioallantoic membrane [6] = experiment: Vascular disruptive effect in chicken fertilized egg chorioallantoic membrane at 15 nmol incubated for 6 hrs by CAM assay; type: functional, tissue-based; conditions: Gallus gallus
EA.hy 926 [7] = experiment: Cell cycle arrest in human EA.hy926 cells assessed as accumulation at sub-G1 phase after 24 hrs by propidium iodide staining based flow cytometric analysis; type: functional
EA.hy 926 [8] = experiment: Antiangiogenic activity in human EA.hy926 cells assessed as reduction in tube formation at 150 nM incubated for 6 hrs by matrigel-based MTT assay; type: functional, cell-based
Danio rerio [9] = organism: Danio rerio; experiment: Antiangiogenic activity in zebrafish embryo assessed as reduction in tube formation at 500 nM incubated for 48 hrs by fluorescence microscopic analysis; type: functional; design: scale not given: the % may be the effect or the level left
Tubulin (Homo sapiens) [10] = molecular target: T1, Tubulin (Homo sapiens) (UniProt P68371+Q9H4B7+P0DPH7+P68366+Q13509+Q71U36+P04350+Q3ZCM7+P07437+P68363+Q9BQE3+Q6PEY2+Q13885+Q9BVA1+Q9BUF5); experiment: Induction of microtubule cytoskeleton disruption in human EA.hy926 cells at 25 nM measured after 24 hrs by DAPI staining based fluorescence microscopic analysis; type: cell-based; conditions: EA.hy 926
Tubulin (Homo sapiens) [11] = molecular target: T1, Tubulin (Homo sapiens); experiment: Induction of microtubule cytoskeleton disruption in human EA.hy926 cells at 50 nM assessed as mitotic catastrophe measured after 24 hrs by DAPI staining based fluorescence microscopic analysis; type: cell-based; conditions: EA.hy 926
EA.hy 926 [12] = experiment: Induction of F-actin cytoskeleton disruption in human EA.hy926 cells at 50 nM assessed as formation of actin stress fibers measured after 3 hrs by DAPI staining based fluorescence microscopic analysis; type: cell-based
[13] = molecular target: CDK1/Cyclin A (Homo sapiens) (UniProt P06493+P20248); experiment: Inhibition of full length recombinant human CDK1/cyclin A2 expressed in baculovirus infected sf9 cells using histone H1 as substrate incubated for 15 mins in presence of ATP by ADP-Glo assay
cells = type: ADME, cell-based; conditions: Homo sapiens, HDFa, 72 h
Description: Cytotoxicity against human HDfa cells assessed as inhibition of cell growth after 72 hrs by MTT assay

EA.hy 926 [14] = experiment: Cell cycle arrest in human EA.hy926 cells assessed as accumulation at G2/M phase at 25 to 70 uM after 24 hrs by propidium iodide staining based flow cytometric analysis; type: functional; conditions: dose 25-70 µM
Danio rerio [15] = organism: Danio rerio; experiment: Antiangiogenic activity in zebrafish embryo assessed as reduction in SIV at 250 nM incubated for 48 hrs by fluorescence microscopic analysis; type: functional; design: scale not given: the % may be the effect or the level left
Chorioallantoic membrane [16] = experiment: Vascular disruptive effect in chicken fertilized egg chorioallantoic membrane at 15 nmol incubated for 24 hrs by CAM assay; type: functional, tissue-based; conditions: Gallus gallus
Chorioallantoic membrane [17] = experiment: Vascular disruptive effect in chicken fertilized egg chorioallantoic membrane at 5 nmol incubated for 24 hrs by CAM assay; type: functional, tissue-based; conditions: Gallus gallus

Chain of CDK1/Cyclin A (Homo sapiens) (P06493 whole entry, looked up): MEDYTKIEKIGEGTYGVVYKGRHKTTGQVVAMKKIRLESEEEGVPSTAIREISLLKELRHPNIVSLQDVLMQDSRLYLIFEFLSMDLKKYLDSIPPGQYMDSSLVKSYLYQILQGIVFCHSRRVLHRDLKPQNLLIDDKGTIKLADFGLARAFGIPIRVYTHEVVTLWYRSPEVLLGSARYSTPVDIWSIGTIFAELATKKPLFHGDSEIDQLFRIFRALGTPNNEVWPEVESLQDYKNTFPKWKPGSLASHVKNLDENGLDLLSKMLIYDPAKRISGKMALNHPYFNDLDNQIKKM
Chain of CDK1/Cyclin A (Homo sapiens) (P20248 whole entry, looked up): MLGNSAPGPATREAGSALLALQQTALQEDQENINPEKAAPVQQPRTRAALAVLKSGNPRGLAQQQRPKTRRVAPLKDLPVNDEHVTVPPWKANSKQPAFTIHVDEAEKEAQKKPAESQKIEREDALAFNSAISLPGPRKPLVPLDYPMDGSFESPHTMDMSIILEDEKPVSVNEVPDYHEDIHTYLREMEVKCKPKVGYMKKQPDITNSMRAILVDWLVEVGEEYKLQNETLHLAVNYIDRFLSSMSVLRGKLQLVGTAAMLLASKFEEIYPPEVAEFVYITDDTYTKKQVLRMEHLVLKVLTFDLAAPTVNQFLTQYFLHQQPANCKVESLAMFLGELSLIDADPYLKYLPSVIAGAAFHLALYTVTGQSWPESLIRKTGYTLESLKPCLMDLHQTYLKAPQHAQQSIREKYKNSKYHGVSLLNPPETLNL

SMILES	IC50 (EA.hy 926 [1]) [nM]	IC50 (HCT-116 [2]) [nM]	IC50 (KB-V1) [nM]	IC50 (HCT-116 [3]) [nM]	IC50 (518A2) [nM]	also measured
COc1cc(-c2nc3sc4c(c3c(=O)[nH]2)CCCC4)cc(Br)c1OC	300	500	300	400	300	
N#Cc1cccc(-c2nc3sc4c(c3c(=O)[nH]2)CCCCC4)c1	13100	1000	18200	3800	9400	
COc1cc(-c2nc3sc4c(c3c(=O)[nH]2)CCNC4)cc(I)c1OC	1000	800	2500	1000	1400	inhibition (Sus scrofa): Active
COc1cc(-c2nc3sc4c(c3c(=O)[nH]2)CCNC4)cc(OC)c1OC	100000	> 100000	> 100000	> 100000	> 100000	
O=c1[nH]c(-c2cc(F)cc(F)c2)nc2sc3c(c12)CCCCC3	> 100000	> 100000	> 100000	> 100000	> 100000	
COc1cc(-c2nc3sc4c(c3c(=O)[nH]2)CCCC4)cc(I)c1OC	200	100	100	200	100	Activity (Chorioallantoic membrane [4]): Active; Activity (EA.hy 926 [5]): Active; Activity (Chorioallantoic membrane [6]): Active; Activity (EA.hy 926 [7]): Dose-dependent effect; Activity (EA.hy 926 [8]): Active; Activity (Danio rerio [9]): 28%; Activity (Tubulin (Homo sapiens) [10]): inactive; Activity (Tubulin (Homo sapiens) [11]): Active; Activity (EA.hy 926 [12]): Active; inhibition [13]: Active; IC50 (cells): > 100000 nM; Activity (EA.hy 926 [14]): Active; inhibition (Sus scrofa): Active; Activity (Danio rerio [15]): 18%
CCOC(=O)N1CCc2c(sc3nc(-c4cccc(C#N)c4)[nH]c(=O)c23)C1	12500	4300	7100	4900	4100	
COc1c(Br)cc(-c2nc3sc4c(c3c(=O)[nH]2)CCCCC4)cc1Br	1000	1000	1400	900	400	
COc1cc(-c2nc3sc4c(c3c(=O)[nH]2)CCCC4)cc(Cl)c1OC	400	1000	300	500	400	
CCOC(=O)N1CCc2c(sc3nc(-c4cc(Br)c(OC)c(OC)c4)[nH]c(=O)c23)C1	200	500	300	400	500	
COc1c(Br)cc(-c2nc3sc4c(c3c(=O)[nH]2)CCNC4)cc1Br	1000	1500	6200	1500	5800	
COc1cc(-c2nc3sc4c(c3c(=O)[nH]2)CCNC4)cc(Cl)c1OC	6300	10800	17000	> 100000	16400	
O=c1[nH]c(-c2cccc(Br)c2)nc2sc3c(c12)CCCCC3	> 100000	> 100000	> 100000	> 100000	> 100000	
CCOC(=O)N1CCc2c(sc3nc(-c4ccc(OC)c(O)c4)[nH]c(=O)c23)C1	4500	5600	2200	1800	2300	
CCOC(=O)N1CCc2c(sc3nc(-c4cc(I)c(OC)c(OC)c4)[nH]c(=O)c23)C1	100	100	100	300	100	Activity (Chorioallantoic membrane [4]): Active; Activity (EA.hy 926 [5]): Active; Activity (EA.hy 926 [7]): Dose-dependent effect; Activity (EA.hy 926 [8]): Active; Activity (Tubulin (Homo sapiens) [10]): inactive; Activity (Tubulin (Homo sapiens) [11]): Active; Activity (EA.hy 926 [12]): Active; inhibition [13]: Active; IC50 (cells): 13100 nM; Activity (EA.hy 926 [14]): Active; Activity (Chorioallantoic membrane [16]): inactive; inhibition (Sus scrofa): Active; Activity (Chorioallantoic membrane [17]): Active
COc1cc(-c2nc3sc4c(c3c(=O)[nH]2)CCCCC4)cc(Br)c1OC	300	300	300	800	200	
N#Cc1cccc(-c2nc3sc4c(c3c(=O)[nH]2)CCCC4)c1	1200	200	1900	700	300	

SMILES	IC50 (EA.hy 926 [1]) [nM]	IC50 (HCT-116 [2]) [nM]	IC50 (KB-V1) [nM]	IC50 (HCT-116 [3]) [nM]	IC50 (518A2) [nM]	also measured
COc1cc(-c2nc3sc4c(c3c(=O)[nH]2)CCNC4)cc(Br)c1OC	11500	7400	2000	10600	9300	
O=c1[nH]c(-c2cccc(Br)c2)nc2sc3c(c12)CCNC3	1600	1400	2200	1600	1700	
C=CC(=O)N1CCc2c(sc3nc(-c4cc(Br)c(OC)c(OC)c4)[nH]c(=O)c23)C1	900	4600	1900	4300	700	
COc1c(Br)cc(-c2nc3sc4c(c3c(=O)[nH]2)CCCC4)cc1Br	1000	700	700	800	2400	
C=CC(=O)N1CCc2c(sc3nc(-c4cc(I)c(OC)c(OC)c4)[nH]c(=O)c23)C1	400	700	1200	2000	200	inhibition (Sus scrofa): Active
COc1cc(-c2nc3sc4c(c3c(=O)[nH]2)CCN(C(C)=O)C4)cc(I)c1OC	100	400	600	200	300	inhibition (Sus scrofa): Active
COc1ccc(-c2nc3sc4c(c3c(=O)[nH]2)CCNC4)cc1	3800	2200	6700	4000	3800	
COc1cc(-c2nc(O)c3c4c(sc3n2)CCCC4)cc(OC)c1OC	400	300	200	5500	200	Activity (Tubulin (Homo sapiens) [10]): inactive; Activity (Tubulin (Homo sapiens) [11]): Active; Activity (EA.hy 926 [12]): inactive; IC50 (cells): > 100000 nM
O=c1[nH]c(-c2cc(F)cc(F)c2)nc2sc3c(c12)CCNC3	5400	3600	6500	6900	5700	
COc1cc(-c2nc3sc4c(c3c(=O)[nH]2)CCN(C(C)=O)C4)cc(Br)c1OC	900	500	2800	400	500	
COc1ccc(/C=C\c2cc(OC)c(OC)c(OC)c2)cc1O [COMBRETASTATIN A4]	10	2	4	3	20	Activity (EA.hy 926 [7]): Dose-dependent effect; Activity (Tubulin (Homo sapiens) [10]): Active; Activity (EA.hy 926 [12]): Active; IC50 (cells): > 100000 nM; Activity (Chorioallantoic membrane [17]): Active
CCOC(=O)N1CCc2c(sc3nc(-c4cc(F)cc(F)c4)[nH]c(=O)c23)C1	4000	4200	5300	1600	5200	
CCOC(=O)N1CCc2c(sc3nc(-c4cc(OC)c(OC)c(OC)c4)[nH]c(=O)c23)C1	200	500	800	600	200	
COc1cc(-c2nc3sc4c(c3c(=O)[nH]2)CCCCC4)cc(Cl)c1OC	200	800	700	300	700	
COc1cc(-c2nc3sc4c(c3c(=O)[nH]2)CCCCC4)cc(I)c1OC	200	200	600	300	200	
CCOC(=O)N1CCc2c(sc3nc(-c4cccnc4)[nH]c(=O)c23)C1	100000	39100	35200	32500	80000	
